Measurements as given in PubChem BioAssay (NCI).
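Abbreviation: GI50, concentration required for 50% inhibition of growth. The concentration for full growth arrest is given as TGI.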

What was measured:
Assay in all cases: growth of human tumour cells (NCI), 384-well format
OVCAR-3 ovarian = test system: OVCAR-3 ovarian
BT-549 breast = test system: BT-549 breast
HCC-2998 colon = test system: HCC-2998 colon
SF-268 CNS = test system: SF-268 CNS
NCI/ADR-RES ovarian = test system: NCI/ADR-RES ovarian
A549 NSCLC = test system: A549 NSCLC
SF-539 CNS = test system: SF-539 CNS
SK-MEL-5 melanoma = test system: SK-MEL-5 melanoma
T-47D breast = test system: T-47D breast
NCI-H522 lung = test system: NCI-H522 lung
SW-620 colon = test system: SW-620 colon
UACC-62 melanoma = test system: UACC-62 melanoma
M14 melanoma = test system: M14 melanoma
MDA-MB-435 melanoma = test system: MDA-MB-435 melanoma
SK-OV-3 ovarian = test system: SK-OV-3 ovarian
MALME-3M melanoma = test system: MALME-3M melanoma
HCT-15 colon = test system: HCT-15 colon
SNB-19 CNS = test system: SNB-19 CNS
NCI-H322M lung = test system: NCI-H322M lung
ACHN renal = test system: ACHN renal
MDA-MB-231 breast = test system: MDA-MB-231 breast
DU-145 prostate = test system: DU-145 prostate
EKVX NSCLC = test system: EKVX NSCLC
OVCAR-5 ovarian = test system: OVCAR-5 ovarian
SF-295 CNS = test system: SF-295 CNS
UO-31 renal = test system: UO-31 renal
LOX IMVI melanoma = test system: LOX IMVI melanoma
RPMI-8226 leukemia = test system: RPMI-8226 leukemia
NCI-H460 NSCLC = test system: NCI-H460 NSCLC
TK-10 renal = test system: TK-10 renal
HCT-116 colon = test system: HCT-116 colon
SK-MEL-28 melanoma = test system: SK-MEL-28 melanoma
HOP-62 NSCLC = test system: HOP-62 NSCLC
SR leukemia = test system: SR leukemia
IGROV1 ovarian = test system: IGROV1 ovarian
HT29 colon = test system: HT29 colon
OVCAR-4 ovarian = test system: OVCAR-4 ovarian
MCF7 breast = test system: MCF7 breast
KM12 colon = test system: KM12 colon
MOLT-4 leukemia = test system: MOLT-4 leukemia
NCI-H23 lung = test system: NCI-H23 lung
PC-3 prostate = test system: PC-3 prostate
HS 578T breast = test system: HS 578T breast
UACC-257 melanoma = test system: UACC-257 melanoma
MDA-MB-468 breast = test system: MDA-MB-468 breast
OVCAR-8 ovarian = test system: OVCAR-8 ovarian
NCI-H226 lung = test system: NCI-H226 lung
SN12C renal = test system: SN12C renal
RXF 393 renal = test system: RXF 393 renal
CAKI-1 renal = test system: CAKI-1 renal
COLO 205 colon = test system: COLO 205 colon
CCRF-CEM leukemia = test system: CCRF-CEM leukemia
A498 renal = test system: A498 renal
SNB-75 CNS = test system: SNB-75 CNS
786-0 renal = test system: 786-0 renal
HOP-92 NSCLC = test system: HOP-92 NSCLC
HL-60(TB) leukemia = test system: HL-60(TB) leukemia
U251 glioblastoma = test system: U251 glioblastoma

CC(O)c1cc(C(=O)N[C@@H](C)Cn2ccc(-c3ccc(C#N)c(Cl)c3)n2)n[nH]1 (stereo partly specified)
GI50 (OVCAR-3 ovarian): > 94.2 µM | TGI (OVCAR-3 ovarian): > 100 µM | GI50 (BT-549 breast): 36.7 µM | TGI (BT-549 breast): 98.6 µM | GI50 (HCC-2998 colon): > 100 µM | TGI (HCC-2998 colon): > 100 µM | GI50 (SF-268 CNS): > 76.2 µM | TGI (SF-268 CNS): > 100 µM | GI50 (NCI/ADR-RES ovarian): > 100 µM | TGI (NCI/ADR-RES ovarian): > 100 µM | GI50 (A549 NSCLC): > 93.4 µM | TGI (A549 NSCLC): > 100 µM | GI50 (SF-539 CNS): > 100 µM | TGI (SF-539 CNS): > 100 µM | GI50 (SK-MEL-5 melanoma): 17.5 µM | TGI (SK-MEL-5 melanoma): 36.5 µM | GI50 (T-47D breast): 17.8 µM | TGI (T-47D breast): 59.4 µM | GI50 (NCI-H522 lung): 43.3 µM | TGI (NCI-H522 lung): > 100 µM | GI50 (SW-620 colon): > 100 µM | TGI (SW-620 colon): > 100 µM | GI50 (UACC-62 melanoma): > 80.4 µM | TGI (UACC-62 melanoma): > 100 µM | GI50 (M14 melanoma): > 83.3 µM | TGI (M14 melanoma): > 100 µM | GI50 (MDA-MB-435 melanoma): > 74.1 µM | TGI (MDA-MB-435 melanoma): > 100 µM | GI50 (SK-OV-3 ovarian): > 64.3 µM | TGI (SK-OV-3 ovarian): > 100 µM | GI50 (MALME-3M melanoma): > 56.3 µM | TGI (MALME-3M melanoma): > 100 µM | GI50 (HCT-15 colon): 59 µM | TGI (HCT-15 colon): > 100 µM | GI50 (SNB-19 CNS): > 100 µM | TGI (SNB-19 CNS): > 100 µM | GI50 (NCI-H322M lung): 34.9 µM | TGI (NCI-H322M lung): > 100 µM | GI50 (ACHN renal): > 46.4 µM | TGI (ACHN renal): > 69.6 µM | GI50 (MDA-MB-231 breast): 42.1 µM | TGI (MDA-MB-231 breast): > 100 µM | GI50 (DU-145 prostate): > 100 µM | TGI (DU-145 prostate): > 100 µM | GI50 (EKVX NSCLC): 34.8 µM | TGI (EKVX NSCLC): > 100 µM | GI50 (OVCAR-5 ovarian): > 100 µM | TGI (OVCAR-5 ovarian): > 100 µM | GI50 (SF-295 CNS): > 57.4 µM | TGI (SF-295 CNS): > 100 µM | GI50 (UO-31 renal): > 45.2 µM | TGI (UO-31 renal): > 63 µM | GI50 (LOX IMVI melanoma): 40.2 µM | TGI (LOX IMVI melanoma): > 100 µM | GI50 (RPMI-8226 leukemia): 21.9 µM | TGI (RPMI-8226 leukemia): > 70.8 µM | GI50 (NCI-H460 NSCLC): > 76.4 µM | TGI (NCI-H460 NSCLC): > 100 µM | GI50 (TK-10 renal): > 100 µM | TGI (TK-10 renal): > 100 µM | GI50 (HCT-116 colon): 33.8 µM | TGI (HCT-116 colon): > 100 µM | GI50 (SK-MEL-28 melanoma): > 100 µM | TGI (SK-MEL-28 melanoma): > 100 µM | GI50 (HOP-62 NSCLC): > 67.6 µM | TGI (HOP-62 NSCLC): > 100 µM | GI50 (SR leukemia): 15.9 µM | TGI (SR leukemia): 33.8 µM | GI50 (IGROV1 ovarian): > 100 µM | TGI (IGROV1 ovarian): > 100 µM | GI50 (HT29 colon): > 100 µM | TGI (HT29 colon): > 100 µM | GI50 (OVCAR-4 ovarian): 31.3 µM | TGI (OVCAR-4 ovarian): > 100 µM | GI50 (MCF7 breast): 57.7 µM | TGI (MCF7 breast): > 100 µM | GI50 (KM12 colon): > 92.4 µM | TGI (KM12 colon): > 100 µM | GI50 (MOLT-4 leukemia): 15.2 µM | TGI (MOLT-4 leukemia): 29 µM | GI50 (NCI-H23 lung): 27.2 µM | TGI (NCI-H23 lung): > 100 µM | GI50 (PC-3 prostate): > 100 µM | TGI (PC-3 prostate): > 100 µM | GI50 (HS 578T breast): 65.6 µM | TGI (HS 578T breast): > 100 µM | GI50 (UACC-257 melanoma): > 80.4 µM | TGI (UACC-257 melanoma): > 100 µM | GI50 (MDA-MB-468 breast): 12 µM | TGI (MDA-MB-468 breast): 42 µM | GI50 (OVCAR-8 ovarian): 35.3 µM | TGI (OVCAR-8 ovarian): 96.9 µM | GI50 (NCI-H226 lung): 35.6 µM | TGI (NCI-H226 lung): > 75.9 µM | GI50 (SN12C renal): > 100 µM | TGI (SN12C renal): > 100 µM | GI50 (RXF 393 renal): 22.9 µM | TGI (RXF 393 renal): 69.6 µM | GI50 (CAKI-1 renal): > 88.3 µM | TGI (CAKI-1 renal): > 100 µM | GI50 (COLO 205 colon): > 82.6 µM | TGI (COLO 205 colon): > 100 µM | GI50 (CCRF-CEM leukemia): 31.5 µM | TGI (CCRF-CEM leukemia): > 100 µM | GI50 (A498 renal): > 100 µM | TGI (A498 renal): > 100 µM | GI50 (SNB-75 CNS): > 74.4 µM | TGI (SNB-75 CNS): > 100 µM | GI50 (786-0 renal): > 100 µM | TGI (786-0 renal): > 100 µM | GI50 (HOP-92 NSCLC): > 100 µM | TGI (HOP-92 NSCLC): > 100 µM | GI50 (HL-60(TB) leukemia): 28.9 µM | TGI (HL-60(TB) leukemia): > 61.9 µM | GI50 (U251 glioblastoma): > 100 µM | TGI (U251 glioblastoma): > 100 µM
